# What was measured:
# [1] = test system: PNY1504; assay: Fermentation of xylose to isobutanol by PNY1504 in defined medium with xylose isomerase, with or without antimycin A; type: cell-based, Saccharomyces cerevisiae
# Description: (§1) Strain PNY1504 was pre-cultured in the defined medium SC-GE as described above, except that the medium was buffered to pH 6. Production cultures used the same SC medium, except either glucose or xylose was added to a final concentration of 35 g/L, and penicillin G (Sigma P3032) was added at 25 μg/ml.
# Unless it is genetically engineered to do so, S. cerevisiae is unable to ferment xylose, but it is able to ferment xylulose. In order to test whether xylose is available for fermentation to isobutanol, it was converted to xylulose in situ by xylose isomerase (10 g/L; Sigma G4166) essentially as described in Lastick S. M., et al., Applied Microbiology and Biotechnology 30:574-579 (1989), Wang P. Y., et al., Biotechnology Letters 2:273-278 (1980) and Chandrakant P & Bisaria V S, Appl Microbiol Biotechnol 53:301-309 (2000).
# (§2) Xylulose can be taken up by yeast and metabolized via the pentose phosphate pathway. […] Souto-Maior A M, et al., J Biotechnol. 143:119-23 (2009). Thus, in order to increase flux towards fermentative products, cultures were treated with the respiratory inhibitor antimycin A (1 μM; Sigma A8674).
# [2] = test system: PNY1504; assay: Fermentation of glucose to isobutanol by PNY1504 in defined medium with or without antimycin A; type: cell-based, Saccharomyces cerevisiae; conditions: glucose 35 g/L
# Description: as §1, §2
# [3] = antimycin A-treated culture (1 μM)
substance,measurement,setting,value
antimycin A,Effect on biomass accumulation,[1]; antimycin A 1 μM,reduce biomass accumulation slightly
same,Effect on xylose consumption profile,[1]; antimycin A 1 μM,not significantly affected
same,Isobutanol production,"[1]; antimycin A 1 μM, at 78 hours",0.5 g/L
same,Isobutanol yield,[1]; in the presence of antimycin A,0.04 g/g
same,Time in which glucose (hexose) was consumed,[2]; antimycin A 1 μM,≤ 24 h
same,Isobutanol titer,[2]; [3],~3.3 g/L
same,Isobutanol yield,[2]; [3],approximately 0.08 g·g^−1

# Reference: patent publication US20130035515A1, “LIGNOCELLULOSIC HYDROLYSATES AS FEEDSTOCKS FOR ISOBUTANOL FERMENTATION” (priority 2011, published 2013)
